Assay results from ChEMBL document CHEMBL1201862, “PubChem BioAssay data set” (2004).
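In this assay, cells in 96-well plates receive the compound at five concentrations for 48 hours. Endpoints are linearly interpolated between the surrounding concentrations. At the GI50, growth is halved.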 The source made the active and inactive calls. Cut-off read from the data, not from the text of the source: active = GI50 up to about 1.1 µM and inactive = higher.

Legend:
Experiment in all cases: NCI-60 cell line screen, 48 h
CAKI-1 = system: CAKI-1
COLO 205 = system: COLO 205
HOP-62 = system: HOP-62
HOP-92 = system: HOP-92
IGROV-1 = system: IGROV-1
KM12 = system: KM12
LOX IMVI = system: LOX IMVI
Malme-3M = system: Malme-3M
NCI-H226 = system: NCI-H226
OVCAR-3 = system: OVCAR-3
RPMI-8226 = system: RPMI-8226
SF-295 = system: SF-295
SK-MEL-2 = system: SK-MEL-2
SNB-75 = system: SNB-75
SW-620 = system: SW-620
TK-10 = system: TK-10
UACC-257 = system: UACC-257
UO-31 = system: UO-31
BT-549 = system: BT-549

Row | SMILES | GI50 (CAKI-1) | GI50 (COLO 205) | GI50 (HOP-62) | GI50 (HOP-92) | GI50 (IGROV-1) | GI50 (KM12) | GI50 (LOX IMVI) | GI50 (Malme-3M) | GI50 (NCI-H226) | GI50 (OVCAR-3) | GI50 (RPMI-8226) | GI50 (SF-295) | GI50 (SK-MEL-2) | GI50 (SNB-75) | GI50 (SW-620) | GI50 (TK-10) | GI50 (UACC-257) | GI50 (UO-31) | GI50 (BT-549)
1 | O=C1Nc2ccccc2/C1=c1\[nH]c(=O)/c(=C\c2ccc(OCc3ccccc3)cn2)[nH]c1=O | 0.303 µM (active) | > 100 µM (inactive) | 20 µM (inactive) | 26.6 µM (inactive) | 47.3 µM (inactive) | > 100 µM (inactive) | > 100 µM (inactive) | 32.4 µM (inactive) | > 100 µM (inactive) | > 100 µM (inactive) | > 100 µM (inactive) | 16.8 µM (inactive) | 38.2 µM (inactive) | 4.21 µM (inactive) | > 100 µM (inactive) | 22.4 µM (inactive) | > 100 µM (inactive) | < 0.01 µM (active) | –
2 | O=C1C[C@H]2[C@H](c3ccc(Br)cc3)[C@H]3C(=O)c4ccccc4NC(=O)[C@@H]3[C@@]2(O)c2ccccc2N1 | 5.85 µM (inactive) | 14.8 µM (inactive) | 19.6 µM (inactive) | < 0.01 µM (active) | 8.22 µM (inactive) | 11.7 µM (inactive) | 13.8 µM (inactive) | 19.7 µM (inactive) | 14.4 µM (inactive) | 10.6 µM (inactive) | 9.82 µM (inactive) | 24 µM (inactive) | – | 4.53 µM (inactive) | 19.7 µM (inactive) | 17.1 µM (inactive) | 20.2 µM (inactive) | – | –
3 | C=CCOCn1cnc2c(=O)[nH]c(N)nc21 | > 100 µM (inactive) | > 100 µM (inactive) | > 100 µM (inactive) | – | > 100 µM (inactive) | > 100 µM (inactive) | > 100 µM (inactive) | > 100 µM (inactive) | > 100 µM (inactive) | – | > 100 µM (inactive) | > 100 µM (inactive) | > 100 µM (inactive) | > 100 µM (inactive) | > 100 µM (inactive) | > 100 µM (inactive) | – | > 100 µM (inactive) | –
4 | Cn1c(=O)nc2n(-c3cc(C(F)(F)F)cc(C(F)(F)F)c3)c3ccccc3nc-2c1=O | > 100 µM (inactive) | > 100 µM (inactive) | > 100 µM (inactive) | 45.1 µM (inactive) | > 100 µM (inactive) | > 100 µM (inactive) | > 100 µM (inactive) | > 100 µM (inactive) | > 100 µM (inactive) | 64.7 µM (inactive) | > 100 µM (inactive) | 52.1 µM (inactive) | > 100 µM (inactive) | 18.8 µM (inactive) | > 100 µM (inactive) | > 100 µM (inactive) | > 100 µM (inactive) | > 100 µM (inactive) | –
5 | CCOC(=O)/C=C1\Nc2ccccc2C12CCc1c([nH]c3ccccc13)C2C(=O)OCC (centres undefined) | 11.7 µM (inactive) | 4.66 µM (inactive) | > 100 µM (inactive) | – | 8.59 µM (inactive) | 20.5 µM (inactive) | 39.2 µM (inactive) | 10.3 µM (inactive) | – | 44.2 µM (inactive) | 7.52 µM (inactive) | 79.4 µM (inactive) | 45.5 µM (inactive) | – | 17.8 µM (inactive) | 23.8 µM (inactive) | 24 µM (inactive) | 21.3 µM (inactive) | 52.2 µM (inactive)
6 | O=S1(=O)c2ccccc2NC(=S)CC1c1ccccc1 (centres undefined) | > 100 µM (inactive) | 36.6 µM (inactive) | > 100 µM (inactive) | – | > 100 µM (inactive) | > 100 µM (inactive) | > 100 µM (inactive) | > 100 µM (inactive) | > 100 µM (inactive) | > 100 µM (inactive) | > 100 µM (inactive) | 26.3 µM (inactive) | – | > 100 µM (inactive) | – | > 100 µM (inactive) | 24.8 µM (inactive) | > 100 µM (inactive) | > 100 µM (inactive)
